Reference: patent publication US20240374587A1, “MEDICINE FOR PREVENTION AND TREATMENT OF DISEASES LINKED TO ANTI-OBESITY ACTIVITY” (Shionogi & Co., Ltd., priority 2021, published 2024)

Each compound was assayed against human MGAT2 (Homo sapiens (Human), UniProt Q3SYC2) (assay: Measurement of human MGAT2 inhibitory activity). Conditions: concentration exhibiting 50% enzyme inhibition.
Assay type: biochemical
Description: Solutions of the compounds of the present invention in DMSO were each aliquoted into 0.2·μL portions in a 384-well polystyrene microplate produced by Corning Incorporated, and 5 μL of an enzyme solution prepared with an assay buffer (100 mmol/L phosphate buffer (pH 7.4) containing 2 mmol/L DTT) and 5 μL of a substrate solution (100 mmol/L phosphate buffer (pH 7.4), 30 μmol/L 2-Oleoylglycerol, 10 μmol/L Oleoyl-CoA) were added thereto, and the resultant was stirred and centrifuged, and incubated in a moist chamber at room temperature for 1 hour. After enzymatic reaction, 50 μL of a quenching solution (containing 0.2 μmol/L Diolein-d5, 0.4% formic acid, and 50% isopropanol) containing Internal Standard (IS) was added to terminate the reaction, and the resultant was sealed in a plate produced by Shimadzu GLC Ltd., and then stirred and centrifuged, and measurement was performed by using an electrospray ionization method with a RapidFire360 and Agilent 6550 Q-TOF mass spectrometer. Diolein as a reaction product (P) of 2-Oleoylglycerol as the substrate and an ammonium adduct ion of the IS were detected, and the peak intensity ratio, P/IS, was calculated from the peak heights to evaluate the inhibitory activity. Inhibitory activities with/without addition of enzyme were defined as Control (+)/Control (−), respectively, and the respective % inhibitions were defined as 0% inhibition and 100% inhibition. The inhibitory activity was calculated from the formula below with TIBCO Spotfire (produced by TIBCO Software Inc.) with the peak intensity ratio, P/IS, at the time of addition of the compound of the present invention being as Sample: […]

Chain of human MGAT2 (Q3SYC2 whole entry): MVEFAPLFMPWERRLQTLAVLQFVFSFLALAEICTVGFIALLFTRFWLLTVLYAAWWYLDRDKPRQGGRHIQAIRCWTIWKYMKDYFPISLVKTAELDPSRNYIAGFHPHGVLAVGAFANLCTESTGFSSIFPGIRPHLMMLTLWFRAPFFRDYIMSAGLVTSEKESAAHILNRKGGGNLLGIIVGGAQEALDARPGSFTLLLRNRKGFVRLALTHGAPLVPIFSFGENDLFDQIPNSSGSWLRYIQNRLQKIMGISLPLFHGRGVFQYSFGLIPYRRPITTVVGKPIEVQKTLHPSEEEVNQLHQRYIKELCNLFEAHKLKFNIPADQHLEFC

| IC50 | SMILES |
| --- | --- |
| 2.05 nM | Cc1ccc(-n2nc3c(c2NC(=O)CS(C)(=O)=O)C(=O)N[C@@]2(CCOc4cc(OCC(C)(F)F)ccc42)C3)nc1 [II-151] |
| 1.4 nM | CS(=O)(=O)CC(=O)Nc1c2c(nn1CCCOC(F)(F)F)C[C@]1(CCc3cc(OCC(F)(F)F)ccc31)NC2=O [Compound I-253] |
| 3.5 nM | CS(=O)(=O)CC(=O)Nc1c(-c2ccc(Cl)cn2)nn2c1C(=O)N[C@]1(CCc3cc(F)cc(F)c31)C2 [I′-147] |
| 2.8 nM | Cc1ccc(-n2nc3c(c2NC(=O)CS(C)(=O)=O)C(=O)N[C@@]2(CCc4cc(OCC(F)(F)F)ccc42)C3)nc1 [Compound I-236] |
| 3.43 nM | CS(=O)(=O)CC(=O)Nc1c(-c2ccc(C3CC3)cn2)nn2c1C(=O)N[C@@]1(CCOc3cc(F)cc(F)c31)C2 [I′-143] |
| 4.97 nM | CCS(=O)(=O)CC(=O)Nc1c(-c2ccc(C)cn2)nn2c1C(=O)N[C@@]1(CCOc3cc(F)cc(F)c31)C2 [I′-136] |
| < 1 nM | CS(=O)(=O)CC(=O)Nc1c2c(nn1-c1ccc(F)cn1)C[C@]1(CCOc3cc(OCC(F)(F)F)ccc31)NC2=O [II-295] |
| 1.97 nM | Cc1ccc(-c2nn3c(c2NC(=O)CS(C)(=O)=O)C(=O)N[C@@]2(CCc4cc(OCC(F)(F)F)ccc42)C3)cc1 [I′-020] |
| 1.61 nM | Cc1ccc(-n2nc3c(c2NC(=O)CS(C)(=O)=O)C(=O)N[C@@]2(CCc4cc(OCCCC(F)(F)F)ccc42)C3)nn1 [II-103] |
| 6.5 nM | CS(=O)(=O)CC(=O)Nc1c2c(nn1-c1ccccn1)C[C@]1(CCc3cc(OCCCC(F)(F)F)ccc31)NC2=O [Compound I-023] |
| 18 nM | CS(=O)(=O)CC(=O)Nc1c2c(nn1-c1ccccc1)C[C@]1(CCc3cc(OCCCC(F)(F)F)ccc31)NC2=O [Compound I-034] |
| 1.88 nM | Cc1ccc(-n2nc3c(c2NC(=O)CS(C)(=O)=O)C(=O)N[C@@]2(CCOc4cc(C5CC5)ccc42)C3)nc1 [II-168] |
| 2.23 nM | CS(=O)(=O)CC(=O)Nc1c(-c2ccc(C(F)F)cn2)nn2c1C(=O)N[C@@]1(CCOc3cc(F)cc(F)c31)C2 [I′-153] |
| 1.39 nM | CCOc1ccc2c(c1)OCC[C@]21Cn2nc(-c3ccc(F)c(F)c3)c(NC(=O)CS(C)(=O)=O)c2C(=O)N1 [I′-133] |
| 6.9 nM | CS(=O)(=O)CC(=O)Nc1c2c(nn1CCCC(F)(F)F)C[C@@]1(CCc3cc(OCC(F)(F)F)ccc31)NC2=O [Compound I-212] |
| 2.88 nM | CS(=O)(=O)CC(=O)Nc1c(-c2ccc(Cl)cn2)nn2c1C(=O)N[C@@]1(CCc3cc(F)cc(F)c31)C2 [I′-142] |
| 15.8 nM | Cc1ccc(-c2nn3c(c2NC(=O)CS(C)(=O)=O)C(=O)N[C@@]2(CCc4cc(F)cc(F)c42)C3)nc1 [I′-139] |
| 2.9 nM | CS(=O)(=O)CC(=O)Nc1c(-c2ccc(C(F)F)cc2)nn2c1C(=O)N[C@@]1(CCOc3cc(F)cc(F)c31)C2 [I′-145] |
| 0.85 nM | CS(=O)(=O)CC(=O)Nc1c(-c2ccc(F)cc2)nn2c1C(=O)N[C@@]1(CCOc3cc(OCC(F)(F)F)ccc31)C2 [I′-066] |
| 1.17 nM | CS(=O)(=O)CC(=O)Nc1c(CCC2CC2)nn2c1C(=O)N[C@@]1(CCc3cc(OCC(F)(F)F)ccc31)C2 [I′-046] |

| IC50 | SMILES |
| --- | --- |
| 8.48 nM | CCS(=O)(=O)CC(=O)Nc1c(-c2ccc(F)cn2)nn2c1C(=O)N[C@@]1(CCc3cc(F)cc(F)c31)C2 [I′-123] |
| 1.14 nM | CS(=O)(=O)CC(=O)Nc1c2c(nn1-c1ccc(F)c(F)c1)C[C@]1(CCOc3cc(CCC(F)(F)F)ccc31)NC2=O [II-225] |
| 6.5 nM | Cc1ccc(-c2nn3c(c2NC(=O)CS(C)(=O)=O)C(=O)N[C@@]2(CCOc4cc(F)cc(F)c42)C3)nc1 [I′-124] |
| 2.78 nM | CS(=O)(=O)CC(=O)Nc1c2c(nn1CCC1CC1)C[C@]1(CCc3cc(OCC(F)(F)F)ccc31)NC2=O [Compound I-008] |
| 1.59 nM | CS(=O)(=O)CC(=O)Nc1c(-c2ccc(F)c(F)c2)nn2c1C(=O)N[C@@]1(CCOc3cc(F)cc(F)c31)C2 [I′-126] |
| 0.73 nM | CS(=O)(=O)CC(=O)Nc1c(-c2ccc(F)c(F)c2)nn2c1C(=O)N[C@@]1(CCc3cc(OCC(F)(F)F)ccc31)C2 [I′-033] |
| 2.9 nM | CS(=O)(=O)CC(=O)Nc1c2c(nn1-c1ccc(C#N)cn1)C[C@]1(CCc3cc(OCC(F)(F)F)ccc31)NC2=O [Compound I-190] |
| 0.22 nM | Cc1cc(-n2nc3c(c2NC(=O)CS(C)(=O)=O)C(=O)N[C@@]2(CCOc4cc(OCCCC(F)(F)F)ccc42)C3)no1 [II-233] |
| 6.42 nM | CS(=O)(=O)CC(=O)Nc1c(-c2ccc(C3CC3)cn2)nn2c1C(=O)N[C@@]1(CCc3cc(F)cc(F)c31)C2 [I′-141] |
| 2 nM | Cc1ccc(-n2nc3c(c2NC(=O)CS(C)(=O)=O)C(=O)N[C@@]2(CCOc4cc(OCC(F)(F)F)ccc42)C3)nc1 [Compound I-275] |
| 2.16 nM | CS(=O)(=O)CC(=O)Nc1c2c(nn1-c1ccc(C(F)F)cc1)C[C@]1(CCc3cc(OCC(F)(F)F)ccc31)NC2=O [II-174] |
| 9.78 nM | CS(=O)(=O)CC(=O)Nc1c(CCC(F)(F)F)nn2c1C(=O)N[C@@]1(CCc3cc(OCC(F)(F)F)ccc31)C2 [I′-058] |
| 5.33 nM | CS(=O)(=O)CC(=O)Nc1c(-c2ccc(Cl)cn2)nn2c1C(=O)N[C@]1(CCOc3cc(F)cc(F)c31)C2 [I′-151] |
| 1.13 nM | CS(=O)(=O)CC(=O)Nc1c(-c2ccc(F)cc2)nn2c1C(=O)N[C@]1(CCc3cc(OCC(F)(F)F)ccc31)C2 [I′-079] |
| 1.21 nM | CS(=O)(=O)CC(=O)Nc1c2c(nn1CCCOC(F)(F)F)C[C@@]1(CCc3cc(OCC(F)(F)F)cc(F)c31)NC2=O [II-093] |
| 2.25 nM | Cc1ccc(-c2nn3c(c2NC(=O)CS(C)(=O)=O)C(=O)N[C@@]2(CCc4cc(OCC(F)(F)F)ccc42)C3)nc1 [I′-006] |
| 4.51 nM | CS(=O)(=O)CC(=O)Nc1c(-c2ccc(F)c(F)c2)nn2c1C(=O)N[C@@]1(CCc3cc(F)cc(F)c31)C2 [I′-130] |
| 1.53 nM | CS(=O)(=O)CC(=O)Nc1c(-c2ccc(Cl)cn2)nn2c1C(=O)N[C@@]1(CCOc3cc(F)cc(F)c31)C2 [I′-137] |
| 2.98 nM | Cc1ccc(-n2nc3c(c2NC(=O)CS(C)(=O)=O)C(=O)N[C@@]2(CCOc4cc(F)cc(F)c42)C3)nc1 [II-203] |
